The source made the active and inactive calls.
Tests used:
[1] = target: T1, Endoribonuclease toxin MazF (Escherichia coli K-12, UniProt P0AE70); experiment: MazF toxin RNase activators, dose response, biochemical, fluorescence, single-stranded RNA substrate, uHTS hits (AID 588481); format: functional
T1 sequence (P0AE70 whole entry): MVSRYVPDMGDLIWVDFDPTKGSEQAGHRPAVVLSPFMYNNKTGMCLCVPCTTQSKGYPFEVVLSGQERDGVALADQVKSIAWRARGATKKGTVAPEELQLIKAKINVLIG

[2] = target: T1, Endoribonuclease toxin MazF; experiment: fluorescent RNA oligo signal without MazF, dose response, counter-screen for MazEF activator project, biochemical, fluorescence, single-stranded RNase substrate (AID 588502); format: functional
[3] = target: T2, Corticotropin-releasing factor receptor 2/Corticotropin-releasing factor-binding protein (Homo sapiens, UniProt P24387+Q13324); experiment: activators of CRF receptor 2 with binding protein – uHTS hits, confirmation (AID 602473); format: functional; conditions: read-out: EC50_Mean
T2 sequence (Q13324 whole entry): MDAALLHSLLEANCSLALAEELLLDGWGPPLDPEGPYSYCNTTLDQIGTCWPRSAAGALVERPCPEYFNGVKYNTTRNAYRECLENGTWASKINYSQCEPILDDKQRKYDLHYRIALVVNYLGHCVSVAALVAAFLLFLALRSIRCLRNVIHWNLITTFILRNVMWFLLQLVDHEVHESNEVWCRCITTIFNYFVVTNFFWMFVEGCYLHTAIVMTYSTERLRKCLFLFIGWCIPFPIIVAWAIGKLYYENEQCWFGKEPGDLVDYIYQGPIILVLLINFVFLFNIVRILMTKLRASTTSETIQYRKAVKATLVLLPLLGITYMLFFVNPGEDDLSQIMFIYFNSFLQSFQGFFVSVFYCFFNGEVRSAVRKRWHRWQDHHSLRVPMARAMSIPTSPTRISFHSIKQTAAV
T2 sequence (P24387 whole entry): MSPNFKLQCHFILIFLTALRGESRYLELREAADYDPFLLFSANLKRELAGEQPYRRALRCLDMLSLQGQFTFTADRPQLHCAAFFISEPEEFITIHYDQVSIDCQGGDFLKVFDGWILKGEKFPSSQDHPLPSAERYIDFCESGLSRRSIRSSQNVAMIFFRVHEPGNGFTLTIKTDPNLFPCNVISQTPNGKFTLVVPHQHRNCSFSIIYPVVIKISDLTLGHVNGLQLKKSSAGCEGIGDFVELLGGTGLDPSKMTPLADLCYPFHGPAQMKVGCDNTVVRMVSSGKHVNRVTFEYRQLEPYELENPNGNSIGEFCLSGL

Caspase-3 = target: T3, Caspase-3 (Homo sapiens, UniProt P42574); format: functional;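 further: Dose-response selectivity test against caspase-3 for candidate inhibitors of sentrin-specific proteases (SENPs)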
T3 sequence (P42574 whole entry): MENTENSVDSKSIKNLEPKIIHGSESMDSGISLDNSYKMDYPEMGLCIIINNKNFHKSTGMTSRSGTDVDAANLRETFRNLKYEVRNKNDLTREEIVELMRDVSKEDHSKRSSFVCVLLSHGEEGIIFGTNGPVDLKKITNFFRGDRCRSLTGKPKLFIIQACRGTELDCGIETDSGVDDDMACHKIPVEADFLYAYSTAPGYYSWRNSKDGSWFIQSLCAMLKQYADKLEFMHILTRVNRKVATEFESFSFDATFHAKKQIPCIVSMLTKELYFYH

[4] = target: T4, Sentrin-specific protease 7 (Homo sapiens, UniProt Q9BQF6); format: functional;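 further: Luminescence-based dose-response confirmation of ultra-high-throughput screening hits, measuring inhibition of SENP7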
T4 sequence (Q9BQF6 whole entry): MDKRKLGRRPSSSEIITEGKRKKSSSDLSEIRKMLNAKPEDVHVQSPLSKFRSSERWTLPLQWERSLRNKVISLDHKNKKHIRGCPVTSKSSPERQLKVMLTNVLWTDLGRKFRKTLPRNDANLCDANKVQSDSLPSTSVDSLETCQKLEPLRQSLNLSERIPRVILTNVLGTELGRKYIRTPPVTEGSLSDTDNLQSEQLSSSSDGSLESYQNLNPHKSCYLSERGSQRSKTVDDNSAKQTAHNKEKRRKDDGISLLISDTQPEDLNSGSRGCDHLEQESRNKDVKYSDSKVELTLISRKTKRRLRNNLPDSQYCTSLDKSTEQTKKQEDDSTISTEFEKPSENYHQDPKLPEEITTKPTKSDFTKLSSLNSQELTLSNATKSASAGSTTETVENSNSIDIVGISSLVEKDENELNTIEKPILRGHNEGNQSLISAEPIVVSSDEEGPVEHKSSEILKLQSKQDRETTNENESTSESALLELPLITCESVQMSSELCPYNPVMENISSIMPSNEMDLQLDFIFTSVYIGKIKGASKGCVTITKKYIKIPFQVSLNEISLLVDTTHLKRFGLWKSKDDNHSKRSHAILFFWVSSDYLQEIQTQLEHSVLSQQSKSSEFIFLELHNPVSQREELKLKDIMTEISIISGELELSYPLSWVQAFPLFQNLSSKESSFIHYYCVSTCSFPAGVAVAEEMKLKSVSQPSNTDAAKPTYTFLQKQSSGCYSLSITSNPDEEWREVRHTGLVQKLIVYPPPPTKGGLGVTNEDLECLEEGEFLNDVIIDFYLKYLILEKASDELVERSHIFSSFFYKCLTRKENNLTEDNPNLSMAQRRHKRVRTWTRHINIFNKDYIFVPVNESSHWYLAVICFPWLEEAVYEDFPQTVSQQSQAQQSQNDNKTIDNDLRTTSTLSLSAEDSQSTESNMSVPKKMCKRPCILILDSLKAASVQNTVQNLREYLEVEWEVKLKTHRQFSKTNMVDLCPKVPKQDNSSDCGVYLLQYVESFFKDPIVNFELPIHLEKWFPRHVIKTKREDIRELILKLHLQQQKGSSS

[5] = target: T5, Sentrin-specific protease 6 (Homo sapiens, UniProt Q9GZR1); format: functional;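 further: Luminescence-based dose-response confirmatory assay of SENP6 inhibition, following up an ultra-high-throughput screen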
T5 sequence (Q9GZR1 whole entry): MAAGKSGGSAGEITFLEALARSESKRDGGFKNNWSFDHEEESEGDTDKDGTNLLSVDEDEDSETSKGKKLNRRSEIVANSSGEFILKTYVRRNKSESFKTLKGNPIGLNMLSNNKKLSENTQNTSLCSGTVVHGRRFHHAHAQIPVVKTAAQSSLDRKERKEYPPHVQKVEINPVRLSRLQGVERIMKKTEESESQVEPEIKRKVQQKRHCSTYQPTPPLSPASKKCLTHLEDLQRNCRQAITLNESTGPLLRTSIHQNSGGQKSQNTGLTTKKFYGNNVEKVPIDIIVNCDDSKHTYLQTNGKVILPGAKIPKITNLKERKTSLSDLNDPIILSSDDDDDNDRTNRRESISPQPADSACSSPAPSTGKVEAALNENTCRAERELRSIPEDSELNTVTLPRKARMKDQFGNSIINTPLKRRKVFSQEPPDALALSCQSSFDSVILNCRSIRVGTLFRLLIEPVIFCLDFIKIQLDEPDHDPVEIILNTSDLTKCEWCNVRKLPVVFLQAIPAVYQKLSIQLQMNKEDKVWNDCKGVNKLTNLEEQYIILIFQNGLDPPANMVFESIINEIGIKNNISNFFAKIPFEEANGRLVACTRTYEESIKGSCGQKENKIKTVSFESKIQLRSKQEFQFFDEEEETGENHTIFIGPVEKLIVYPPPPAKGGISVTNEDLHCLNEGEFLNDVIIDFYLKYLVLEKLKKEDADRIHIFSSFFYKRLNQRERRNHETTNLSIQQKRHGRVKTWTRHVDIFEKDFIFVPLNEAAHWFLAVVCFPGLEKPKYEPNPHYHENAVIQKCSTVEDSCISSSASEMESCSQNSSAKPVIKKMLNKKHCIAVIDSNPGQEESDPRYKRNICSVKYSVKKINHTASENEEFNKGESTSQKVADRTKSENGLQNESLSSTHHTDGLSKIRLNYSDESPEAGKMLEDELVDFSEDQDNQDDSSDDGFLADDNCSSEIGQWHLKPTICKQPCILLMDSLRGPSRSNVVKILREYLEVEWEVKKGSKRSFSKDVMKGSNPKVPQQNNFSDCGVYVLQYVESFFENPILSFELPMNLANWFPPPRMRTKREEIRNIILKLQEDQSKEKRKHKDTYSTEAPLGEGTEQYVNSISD

[6] = target: T6, Sentrin-specific protease 8 (Homo sapiens, UniProt Q96LD8); format: functional;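 further: luminescence read-out of SENP8 inhibition, dose-response confirmation following an ultra-high-throughput screen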
T6 sequence (Q96LD8 whole entry): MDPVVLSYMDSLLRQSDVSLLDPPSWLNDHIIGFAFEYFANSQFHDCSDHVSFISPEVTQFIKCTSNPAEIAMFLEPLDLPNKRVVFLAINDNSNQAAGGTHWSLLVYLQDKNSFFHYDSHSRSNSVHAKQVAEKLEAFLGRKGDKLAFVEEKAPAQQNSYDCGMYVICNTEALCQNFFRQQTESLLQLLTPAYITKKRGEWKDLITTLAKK

[7] = target: T7, Short transient receptor potential channel 4 (Mus musculus, UniProt Q9QUQ5); experiment: mouse TRPC4 channel inhibitors, dose response, cell-based, HEK293 TRPC4/mu-opioid, Fluo-4 calcium (AID 434942); format: functional;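 further: potency of inhibitors blocking the TRPC4 calcium response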
T7 sequence (Q9QUQ5 whole entry): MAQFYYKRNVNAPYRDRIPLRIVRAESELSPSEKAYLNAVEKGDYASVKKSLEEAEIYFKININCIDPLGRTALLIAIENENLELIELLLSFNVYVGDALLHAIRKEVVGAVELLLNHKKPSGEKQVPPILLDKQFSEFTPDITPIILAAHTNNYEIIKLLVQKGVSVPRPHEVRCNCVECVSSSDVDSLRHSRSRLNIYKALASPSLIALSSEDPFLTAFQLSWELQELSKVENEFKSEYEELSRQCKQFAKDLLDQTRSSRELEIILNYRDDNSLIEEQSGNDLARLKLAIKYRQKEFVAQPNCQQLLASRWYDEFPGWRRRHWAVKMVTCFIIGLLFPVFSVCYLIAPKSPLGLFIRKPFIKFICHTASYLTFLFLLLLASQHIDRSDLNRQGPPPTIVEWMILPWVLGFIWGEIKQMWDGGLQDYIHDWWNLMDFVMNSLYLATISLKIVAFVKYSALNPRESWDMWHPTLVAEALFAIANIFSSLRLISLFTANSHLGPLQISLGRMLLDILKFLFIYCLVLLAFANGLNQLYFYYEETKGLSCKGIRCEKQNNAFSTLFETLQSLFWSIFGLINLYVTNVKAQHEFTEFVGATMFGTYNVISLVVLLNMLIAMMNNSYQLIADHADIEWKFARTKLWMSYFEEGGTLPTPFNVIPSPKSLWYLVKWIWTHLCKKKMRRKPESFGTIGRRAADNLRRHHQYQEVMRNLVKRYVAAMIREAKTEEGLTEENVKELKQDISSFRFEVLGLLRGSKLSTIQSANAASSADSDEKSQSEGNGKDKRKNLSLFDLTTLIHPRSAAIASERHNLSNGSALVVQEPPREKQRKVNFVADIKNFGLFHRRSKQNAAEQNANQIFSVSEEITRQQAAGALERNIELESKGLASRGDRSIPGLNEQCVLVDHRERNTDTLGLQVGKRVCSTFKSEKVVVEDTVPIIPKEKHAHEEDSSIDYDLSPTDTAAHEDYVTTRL

HEK293 = experiment: inhibitors of LMP1-driven NF-kB reporter, dose response, cell-based, HEK293, luciferase, cherry-pick (AID 588343); format: functional; conditions: Homo sapiens
[8] = target: T8, Oxysterols receptor LXR-beta (Homo sapiens, UniProt P55055); format: functional, cell-based;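 further: agonist activity at LXR measured by a cell-based luminescence readout across a dose range, run as a counterscreen for daf-12 agonists; HEK293 cells with Gal4-LXR fusion and GAL4-driven luciferase reporter; potency for activation of Gal4-LXR reporter so compounds are agonists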
T8 sequence (P55055 whole entry): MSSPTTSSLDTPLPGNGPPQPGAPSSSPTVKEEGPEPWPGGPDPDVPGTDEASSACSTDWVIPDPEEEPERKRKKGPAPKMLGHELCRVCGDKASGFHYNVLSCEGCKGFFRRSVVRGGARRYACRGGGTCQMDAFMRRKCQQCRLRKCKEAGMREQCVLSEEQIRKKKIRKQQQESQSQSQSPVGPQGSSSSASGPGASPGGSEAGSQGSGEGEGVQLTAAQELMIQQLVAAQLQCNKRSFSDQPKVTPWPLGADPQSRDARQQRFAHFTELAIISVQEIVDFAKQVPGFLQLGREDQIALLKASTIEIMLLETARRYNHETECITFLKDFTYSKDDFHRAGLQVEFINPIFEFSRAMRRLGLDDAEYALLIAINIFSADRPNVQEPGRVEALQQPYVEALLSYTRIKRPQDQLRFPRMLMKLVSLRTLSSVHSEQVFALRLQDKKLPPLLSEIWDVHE

Row | SMILES | EC50 [1] | EC50 [2] | IC50 (Caspase-3) | IC50 [4] | IC50 [5] | IC50 [6] | further results
1 | CCCNC(=O)Cn1c(=O)/c(=C\c2ccc(-c3cccc([N+](=O)[O-])c3)o2)s/c1=C\C(=O)C(C)(C)C | > 99 µM (inactive) | > 99 µM (inactive) | – | – | – | – | EC50 [3]: > 53 µM (inactive)
2 | Cc1ccc(CN2CCN(CC(=O)N/N=C/c3ccccc3F)CC2)cc1 | – | – | 34.4 µM (active) | 14.3 µM (active) | 27 µM (active) | > 100 µM (inactive) | –
3 | CCn1c2ccccc2c2cc(/C=N/NC(=O)c3cc(O)cc(O)c3)ccc21 | – | – | – | – | – | – | EC50 [7]: 0.749 µM (active); AC50 (HEK293): 8.43 µM (active)
4 | CCN(CC)S(=O)(=O)c1ccc2oc(Nc3ccccc3)nc2c1 | – | – | 29.7 µM (active) | 9.19 µM (active) | > 100 µM (inactive) | > 100 µM (inactive) | –
5 | CCOc1ccc(S(=O)(=O)NN)cc1 | > 99 µM (inactive) | 23.9 µM (inactive) | – | – | – | – | –
6 | Cc1c(C(=O)Nc2ccccc2)csc1-c1ccccc1 | – | – | 19.3 µM (active) | 8.96 µM (active) | 6.64 µM (active) | 7.47 µM (active) | EC50 [8]: > 67.5 µM (inactive)

From ChEMBL document CHEMBL1201862, “PubChem BioAssay data set” (2004)
